Laboratory results as given in US9493396B2, “Substituted naphthalene compounds as calcium sensing receptor modulators” (LUPIN ATLANTIS HOLDINGS SA, priority 2013, dated 2016).
pEC50: −log10 of the molar value. Where a name gives a salt, the structure may show the parent alone.

Target: T1, Calcium sensing receptor (hCaSR) (Homo sapiens, UniProt P41180)
T1 construct: expressed in transfected cells; host or cells: HEK293 (stably transfected)
T1 sequence (P41180 20-1078): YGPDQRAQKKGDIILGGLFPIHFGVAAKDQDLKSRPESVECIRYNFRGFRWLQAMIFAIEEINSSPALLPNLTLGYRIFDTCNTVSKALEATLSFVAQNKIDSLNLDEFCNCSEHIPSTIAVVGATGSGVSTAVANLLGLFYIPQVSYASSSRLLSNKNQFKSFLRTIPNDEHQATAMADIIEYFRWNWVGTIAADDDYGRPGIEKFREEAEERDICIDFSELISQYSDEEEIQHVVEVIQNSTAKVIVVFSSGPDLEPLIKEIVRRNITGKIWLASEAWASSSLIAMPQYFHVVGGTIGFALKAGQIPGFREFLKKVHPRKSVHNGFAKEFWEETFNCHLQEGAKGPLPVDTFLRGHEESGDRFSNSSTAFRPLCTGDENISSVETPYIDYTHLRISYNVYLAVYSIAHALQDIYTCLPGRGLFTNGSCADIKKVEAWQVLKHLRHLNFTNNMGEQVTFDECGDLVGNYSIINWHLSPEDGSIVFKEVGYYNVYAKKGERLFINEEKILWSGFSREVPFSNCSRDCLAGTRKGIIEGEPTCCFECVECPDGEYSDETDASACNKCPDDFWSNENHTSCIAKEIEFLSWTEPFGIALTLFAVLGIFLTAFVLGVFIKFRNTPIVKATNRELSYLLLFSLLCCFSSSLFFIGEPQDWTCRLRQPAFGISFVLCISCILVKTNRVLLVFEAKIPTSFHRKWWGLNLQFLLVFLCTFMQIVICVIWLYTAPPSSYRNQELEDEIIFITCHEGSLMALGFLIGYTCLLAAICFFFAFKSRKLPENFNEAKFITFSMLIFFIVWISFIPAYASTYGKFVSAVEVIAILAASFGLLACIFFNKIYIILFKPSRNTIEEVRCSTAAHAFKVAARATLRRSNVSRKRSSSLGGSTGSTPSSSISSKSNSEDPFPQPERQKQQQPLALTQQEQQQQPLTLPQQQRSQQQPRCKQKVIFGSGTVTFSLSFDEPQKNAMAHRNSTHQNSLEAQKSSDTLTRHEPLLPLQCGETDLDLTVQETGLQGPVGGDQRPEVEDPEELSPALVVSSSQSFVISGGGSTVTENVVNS
Assay: In-vitro assay of calcimimetics through modulation of calcium sensing receptor (intracellular calcium increase, FLIPR)
Assay type: cell-based
Details: stably transfected HEK293 cells expressing hCaSR; Fluo4NW dye; 0.3 mM CaCl2; 8-point assay; read-out: EC50 in range
Protocol: In-Vitro Assay Method of Calcimimetics Through Modulation of Calcium Sensing Receptor (CaSR): The ability of the compounds to modulate Calcium sensing receptor is determined by measuring an increase in intracellular calcium [Ca^2+]i. Stably transfected HEK293 cells expressing hCaSR_pTriEx-3 hygro vector are developed. Cells are grown overnight on a 96-well plate to 80% confluency in Ham's F12 containing 20% FBS at 37° C., 5% CO2. Subsequently, cells are washed extensively with 20 mM HEPES buffer containing 126 mM […], 1 mM MgCl2 and 4 mM KCl to remove serum components that might interfere with the assay. Cells are loaded with calcium sensing Fluo4NW dye in HEPES base buffer containing 0.1% BSA and 1 mg/ml glucose for 30 minutes to measure changes in intracellular calcium. The activities of the compounds are measured in FLIPR using 0.3 mM CaCl2 in 20 mM HEPES base buffer. The effectiveness of the compound to modulate receptor activity is determined by calculating the EC50 responses for that compound in an 8-point assay and plotted using GraphPad Prism 5.

Row | Compound | pEC50
1 | COc1cc([C@@H](C)NC(C)c2cc(-c3ccc(C)c(C(=O)O)c3)c3ccccc3c2)ccc1F (stereo partly drawn) [Example 115, 5-(3-(1-(((R)-1-(4-Fluoro-3-methoxyphenyl)ethyl)amino)ethyl)naphthalen-1-yl)-2-methylbenzoic acid hydrochloride] | 6.40 to 7.30
2 | COc1cccc([C@@H](C)NC(C)c2cc(-c3cccc(C(=O)O)c3C)c3ccccc3c2)c1 (stereo partly drawn) [Example 116, 3-(3-(1-(((R)-1-(3-Methoxyphenyl)ethyl)amino)ethyl)naphthalen-1-yl)-2-methylbenzoic acid hydrochloride] | 7.30 to 7.70
3 | Cc1ccc(-c2cc(C(C)N[C@H](C)c3cccc(Cl)c3)cc3ccccc23)cc1C(=O)O (stereo partly drawn) [Example 117, 5-(3-(1-(((R)-1-(3-Chlorophenyl)ethyl)amino)ethyl)naphthalen-1-yl)-2-methylbenzoic acid hydrochloride] | 6.40 to 7.30
4 | COc1cccc([C@@H](C)NC(C)c2cc(-c3cc(F)cc(C(=O)O)c3)c3ccccc3c2)c1 (stereo partly drawn) [Example 118, 3-Fluoro-5-(3-(1-(((R)-1-(3-methoxyphenyl)ethyl)amino)ethyl)naphthalen-1-yl)benzoic acid hydrochloride] | > 7.70
5 | COc1cccc([C@@H](C)NC(C)c2cc(-c3ccc(C(=O)O)cc3)c3ccccc3c2)c1 (stereo partly drawn) [Example 119, 4-(3-(1-(((R)-1-(3-Methoxyphenyl)ethyl)amino)ethyl)naphthalen-1-yl)benzoic acid hydrochloride] | 6.40 to 7.30
6 | COc1cccc([C@@H](C)NC(C)c2cc(-c3ccc(C(=O)O)cc3F)c3ccccc3c2)c1 (stereo partly drawn) [Example 120, 3-Fluoro-4-(3-(1-(((R)-1-(3-methoxyphenyl)ethyl)amino)ethyl)naphthalen-1-yl)benzoic acid hydrochloride] | > 7.70
7 | COc1cccc([C@@H](C)NC(C)c2cc(-c3ccc(C(=O)O)c(Cl)c3)c3ccccc3c2)c1 (stereo partly drawn) [Example 121, 2-Chloro-4-(3-(1-(((R)-1-(3-methoxyphenyl)ethyl)amino)ethyl)naphthalen-1-yl)benzoic acid hydrochloride] | 6.40 to 7.30
8 | COc1cccc([C@@H](C)NC(C)c2cc(-c3ccc(F)c(CCC(=O)O)c3)c3ccccc3c2)c1 (stereo partly drawn) [Example 122, 3-(2-Fluoro-5-(3-(1-(((R)-1-(3-methoxyphenyl)ethyl)amino)ethyl)naphthalen-1-yl)phenyl)propanoic acid hydrochloride] | > 7.70
9 | COc1cccc([C@@H](C)NC(C)c2cc(-c3ccc(F)c(C(=O)O)c3)c3ccccc3c2)c1 (stereo partly drawn) [Example 123, 2-Fluoro-5-(3-(1-(((R)-1-(3-methoxyphenyl)ethyl)amino)ethyl)naphthalen-1-yl)benzoic acid hydrochloride] | > 7.70
10 | COc1cccc([C@@H](C)NC(C)c2cc(-c3ccc(C(=O)O)c(C(F)(F)F)c3)c3ccccc3c2)c1 (stereo partly drawn) [Example 124, 4-(3-(1-(((R)-1-(3-Methoxyphenyl)ethyl)amino)ethyl)naphthalen-1-yl)-2-(trifluoromethyl) benzoic acid hydrochloride] | 7.30 to 7.70
11 | COc1cccc([C@@H](C)NC(C)c2cc(-c3cc(C)cc(C(=O)O)c3)c3ccccc3c2)c1 (stereo partly drawn) [Example 125, 3-(3-(1-(((R)-1-(3-Methoxyphenyl)ethyl)amino)ethyl)naphthalen-1-yl)-5-methylbenzoic acid hydrochloride] | 6.40 to 7.30
12 | CCOc1cccc([C@@H](C)NC(C)c2cc(-c3ccc(F)c(C(=O)O)c3)c3ccccc3c2)c1 (stereo partly drawn) [Example 126, 5-(3-(1-(((R)-1-(3-Ethoxyphenyl)ethyl)amino)ethyl)naphthalen-1-yl)-2-fluorobenzoic acid hydrochloride] | > 7.70
13 | CC(N[C@H](C)c1cccc(Cl)c1)c1cc(-c2ccc(F)c(C(=O)O)c2)c2ccccc2c1 (stereo partly drawn) [Example 127, 5-(3-(1-(((R)-1-(3-Chlorophenyl)ethyl)amino)ethyl)naphthalen-1-yl)-2-fluorobenzoic acid hydrochloride] | 6.40 to 7.30
14 | COc1cccc([C@@H](C)NC(C)c2cc(-c3ccc(C(F)(F)F)c(C(=O)O)c3)c3ccccc3c2)c1 (stereo partly drawn) [Example 128, 5-(3-(1-(((R)-1-(3-Methoxyphenyl)ethyl)amino)ethyl)naphthalen-1-yl)-2-(trifluoromethyl) benzoic acid hydrochloride] | 6.40 to 7.30
15 | COc1cccc([C@@H](C)NC(C)c2cc(-c3cccc(CCC(=O)O)c3F)c3ccccc3c2)c1 (stereo partly drawn) [Example 129, 3-(2-Fluoro-3-(3-(1-(((R)-1-(3-methoxyphenyl)ethyl)amino)ethyl)naphthalen-1-yl)phenyl)propanoic acid hydrochloride] | > 7.70
16 | COc1cccc([C@@H](C)NC(C)c2cc(-c3ccc(C(=O)O)c(C)c3)c3ccccc3c2)c1 (stereo partly drawn) [Example 130, 4-(3-(1-(((R)-1-(3-Methoxyphenyl)ethyl)amino)ethyl)naphthalen-1-yl)-2-methylbenzoic acid hydrochloride] | 6.40 to 7.30
17 | COc1cccc([C@@H](C)NC(C)c2cc(-c3ccc(OC)c(CCC(=O)O)c3)c3ccccc3c2)c1 (stereo partly drawn) [Example 131, 3-(2-Methoxy-5-(3-(1-(((R)-1-(3-methoxyphenyl)ethyl)amino)ethyl)naphthalen-1-yl)phenyl) propanoic acid hydrochloride] | 7.30 to 7.70
18 | COc1cccc([C@@H](C)NC(C)c2cc(-c3ccc(C(=O)O)c(F)c3)c3ccccc3c2)c1 (stereo partly drawn) [Example 132, 2-Fluoro-4-(3-(1-(((R)-1-(3-methoxyphenyl)ethyl)amino)ethyl)naphthalen-1-yl)benzoic acid hydrochloride] | 6.40 to 7.30
19 | COc1cccc([C@@H](C)NC(C)c2cc(-c3ccc(Cl)c(C(=O)O)c3)c3ccccc3c2)c1 (stereo partly drawn) [Example 133, 2-Chloro-5-(3-(1-(((R)-1-(3-methoxyphenyl)ethyl)amino)ethyl)naphthalen-1-yl)benzoic acid hydrochloride] | > 7.70
20 | COc1cccc([C@@H](C)NC(C)c2cc(-c3cc(F)cc(CCC(=O)O)c3)c3ccccc3c2)c1 (stereo partly drawn) [Example 134, 3-(3-Fluoro-5-(3-(1-(((R)-1-(3-methoxyphenyl)ethyl)amino)ethyl)naphthalen-1-yl)phenyl)propanoic acid hydrochloride] | > 7.70
21 | COc1cccc([C@@H](C)NC(C)c2cc(-c3ccc(C(F)(F)C(=O)O)cc3)c3ccccc3c2)c1 (stereo partly drawn) [Example 135, 2,2-Difluoro-2-(4-(3-(1-(((R)-1-(3-methoxyphenyl)ethyl)amino)ethyl)naphthalen-1-yl)phenyl) acetic acid hydrochloride] | > 7.70
22 | COc1cccc([C@@H](C)NC(C)c2cc(-c3ccc(CCC(=O)O)c(F)c3)c3ccccc3c2)c1 (stereo partly drawn) [Example 136, 3-(2-Fluoro-4-(3-(1-(((R)-1-(3-methoxyphenyl)ethyl)amino)ethyl)naphthalen-1-yl)phenyl) propanoic acid hydrochloride] | 7.30 to 7.70
23 | COc1cccc([C@@H](C)NC(C)c2cc(-c3ccc(C)c(CCC(=O)O)c3)c3ccccc3c2)c1 (stereo partly drawn) [Example 137, 3-(5-(3-(1-(((R)-1-(3-Methoxyphenyl)ethyl)amino)ethyl)naphthalen-1-yl)-2-methylphenyl) propanoic acid hydrochloride] | > 7.70
24 | COc1cccc([C@@H](C)NC(C)c2cc(-c3ccc(C(C)(C)C(=O)O)cc3)c3ccccc3c2)c1 (stereo partly drawn) [Example 138, 2-(4-(3-(1-(((R)-1-(3-Methoxyphenyl)ethyl)amino)ethyl)naphthalen-1-yl)phenyl)-2-methylpropanoic acid hydrochloride] | 6.40 to 7.30
25 | COc1cccc([C@@H](C)NC(C)c2cc(-c3cccc(C(C)(C)C(=O)O)c3)c3ccccc3c2)c1 (stereo partly drawn) [Example 139, 2-(3-(3-(1-(((R)-1-(3-Methoxyphenyl)ethyl)amino)ethyl)naphthalen-1-yl)phenyl)-2-methylpropanoic acid hydrochloride] | 6.40 to 7.30
